For one data set, the system named is HCT-116. The data set can be described thus: Antiproliferative activity against human HCT-116 cells incubated for 48 hrs by MTT assay. As to conditions: HCT-116, 48 h. It is filed as functional, cell-based. A general note: Tetrazolium assays rely on reduction of a dye to a coloured formazan, in cell work by metabolically active cells.
For another data set, the system named is A549. The data set can be described thus: Antiproliferative activity against human A549 cells incubated for 48 hrs by MTT assay. It is filed as functional, cell-based. As to conditions: A549, 48 h.
A further data set has as its system U-87 MG. The data set can be described thus: Antiproliferative activity against human U-87 MG cells incubated for 48 hrs by MTT assay. It counts as functional, cell-based, U-87MG ATCC.
For data set [1], the system named is BE(2)-C. As to the kind of experiment: Antiproliferative activity against human BE2C cells incubated for 48 hrs by MTT assay. It counts as functional, cell-based.
The target in a further data set is T1, Histone deacetylase 8 (Homo sapiens, UniProt Q9BY41).
T1 sequence (Q9BY41 whole entry): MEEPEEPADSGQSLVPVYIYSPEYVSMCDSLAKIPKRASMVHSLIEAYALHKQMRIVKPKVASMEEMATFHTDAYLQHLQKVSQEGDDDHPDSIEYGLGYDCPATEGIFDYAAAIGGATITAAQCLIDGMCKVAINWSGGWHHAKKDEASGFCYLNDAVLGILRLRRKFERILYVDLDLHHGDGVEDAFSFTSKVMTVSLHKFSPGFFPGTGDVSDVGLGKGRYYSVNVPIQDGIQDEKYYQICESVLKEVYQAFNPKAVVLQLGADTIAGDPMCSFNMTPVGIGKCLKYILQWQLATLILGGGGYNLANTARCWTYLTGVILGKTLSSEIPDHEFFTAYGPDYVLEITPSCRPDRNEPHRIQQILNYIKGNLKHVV
The data set can be described thus: Inhibition of HDAC8 (unknown origin).

Data set [2] concerns the target T2, Protein deacetylase HDAC6 (Homo sapiens, UniProt Q9UBN7).
T2 sequence (Q9UBN7 whole entry): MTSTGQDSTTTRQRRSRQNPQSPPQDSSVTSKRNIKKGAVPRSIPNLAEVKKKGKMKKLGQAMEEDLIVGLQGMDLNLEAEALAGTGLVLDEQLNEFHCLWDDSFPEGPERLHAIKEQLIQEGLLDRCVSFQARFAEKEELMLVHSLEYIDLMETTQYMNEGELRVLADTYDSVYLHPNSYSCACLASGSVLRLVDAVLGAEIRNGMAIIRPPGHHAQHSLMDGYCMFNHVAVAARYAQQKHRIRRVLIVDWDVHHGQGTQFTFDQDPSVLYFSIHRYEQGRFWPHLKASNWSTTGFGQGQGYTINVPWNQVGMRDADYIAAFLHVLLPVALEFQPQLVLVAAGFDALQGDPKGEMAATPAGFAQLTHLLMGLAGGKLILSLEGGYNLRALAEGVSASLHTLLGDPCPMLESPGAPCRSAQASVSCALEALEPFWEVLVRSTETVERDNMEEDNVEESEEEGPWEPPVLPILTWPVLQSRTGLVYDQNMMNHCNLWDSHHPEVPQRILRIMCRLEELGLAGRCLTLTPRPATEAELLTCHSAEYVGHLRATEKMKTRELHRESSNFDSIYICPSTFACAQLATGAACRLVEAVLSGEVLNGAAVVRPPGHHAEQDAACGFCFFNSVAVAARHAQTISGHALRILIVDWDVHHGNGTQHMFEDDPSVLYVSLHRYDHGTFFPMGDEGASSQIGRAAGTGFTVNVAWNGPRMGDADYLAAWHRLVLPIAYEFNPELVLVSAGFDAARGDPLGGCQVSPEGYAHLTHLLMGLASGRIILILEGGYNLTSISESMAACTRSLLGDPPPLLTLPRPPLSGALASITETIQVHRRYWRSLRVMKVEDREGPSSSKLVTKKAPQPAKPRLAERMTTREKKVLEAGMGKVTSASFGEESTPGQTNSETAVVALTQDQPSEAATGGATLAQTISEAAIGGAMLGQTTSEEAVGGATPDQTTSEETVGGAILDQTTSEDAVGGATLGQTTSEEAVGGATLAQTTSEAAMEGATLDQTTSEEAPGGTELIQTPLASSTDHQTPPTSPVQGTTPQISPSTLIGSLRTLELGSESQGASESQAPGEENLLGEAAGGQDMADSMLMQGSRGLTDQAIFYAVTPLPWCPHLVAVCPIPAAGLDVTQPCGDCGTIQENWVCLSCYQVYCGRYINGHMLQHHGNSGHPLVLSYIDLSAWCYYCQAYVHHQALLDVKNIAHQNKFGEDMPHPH
As to the kind of experiment: Inhibition of HDAC6 (unknown origin).

The target in the next data set is Histone deacetylase 1 (Homo sapiens, UniProt Q13547). As to the kind of experiment: Inhibition of HDAC1 (unknown origin).
Data set [3] relates to BE(2)-C. The data set can be described thus: Antitumor activity against human BE2C cells xenografted in nude mouse assessed as tumor growth inhibition at 5 mg/kg, ip treated for every 3 days relative to control. It counts as functional. The conditions noted are these: 72 h, time 3 day, read-out: TGI. (In general: Xenograft models place foreign cells or tissue in a host animal.)

The nature of data set [4]: Metabolic stability in human liver microsomes assessed as compound remaining incubated for 30 mins. It counts as ADME, Microsome. As to conditions: microsomes, 0.5 h. A general note: Liver microsomes are a subcellular fraction often used to study metabolism.
Data set [5] can be described thus: Metabolic stability in human liver microsomes assessed as intrinsic clearance. It counts as ADME, Microsome. The conditions noted are these: read-out: CLH.
The nature of data set [6]: Aqueous solubility of compound at 1 mg incubated for 10 mins. It is filed as physicochemical.
Data set [7] can be described thus: Metabolic stability in human liver microsomes assessed as half life. It is filed as ADME, Microsome.
Data set [8] can be described thus: Metabolic stability in human liver microsomes assessed as compound remaining incubated for 10 mins. It counts as ADME, Microsome. As to conditions: read-out: Stability.
Data set [9] in a line: Metabolic stability in human liver microsomes assessed as compound remaining incubated for 20 mins. It is filed as ADME, Microsome. As to conditions: liver microsomes, read-out: Stability.
Data set [10] in a line: Metabolic stability in human liver microsomes assessed as compound remaining incubated for 60 mins. The conditions noted are these: microsomes, 1 h. It is filed as ADME, Microsome.
Data set [11] is described as follows: Metabolic stability in human liver microsomes assessed as compound remaining incubated for 5 mins. As to conditions: read-out: Stability. It counts as ADME, Microsome.
A further data set concerns the target Tubulin (Sus scrofa, UniProt P02554+P02550). As to the kind of experiment: Inhibition of tubulin polymerization of pig brain by absorbance based assay.

pIC50: −log10 of the molar value. Values after ≈ are worked out from the molar mass of the structure shown. Bounds are passed on as bounds.

From ChEMBL document CHEMBL5325505, “Discovery of chiral 1,4-diarylazetidin-2-one-based hydroxamic acid derivatives as novel tubulin polymerization inhibitors with histone deacetylase inhibitory activity” (Bioorg Med Chem, 2023) come the findings set out here.

Histone deacetylase 1, sequence (Q13547 whole entry): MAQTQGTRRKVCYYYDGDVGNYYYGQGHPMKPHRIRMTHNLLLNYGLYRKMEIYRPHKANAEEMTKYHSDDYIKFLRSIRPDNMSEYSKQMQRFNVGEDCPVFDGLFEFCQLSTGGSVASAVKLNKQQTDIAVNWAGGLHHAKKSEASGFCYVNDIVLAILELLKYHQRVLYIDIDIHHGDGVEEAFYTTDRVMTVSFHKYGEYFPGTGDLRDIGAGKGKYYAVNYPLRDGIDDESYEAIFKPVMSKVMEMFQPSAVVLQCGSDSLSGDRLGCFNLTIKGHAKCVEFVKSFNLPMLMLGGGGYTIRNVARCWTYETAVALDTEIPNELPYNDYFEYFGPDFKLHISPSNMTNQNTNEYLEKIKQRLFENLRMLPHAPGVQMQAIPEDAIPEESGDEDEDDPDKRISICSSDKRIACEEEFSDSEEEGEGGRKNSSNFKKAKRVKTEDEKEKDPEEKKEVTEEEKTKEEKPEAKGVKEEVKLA

In general, pIC50 refers to −log10 of the IC50, conventionally taken in molar units. Turning to `COc1ccc([C@H]2[C@H](C)C(=O)N2c2cc(OC)c(OC)c(OC)c2)cc1OCCCCC(=O)NO`, the pIC50 in the data set on HCT-116 was less than 5.00; with A549 it was 5.63; with U-87 MG, less than 5.00; with BE(2)-C [1] it was 5.40.

As to `COc1ccc([C@H]2[C@H](COC(=O)CCC(=O)NO)C(=O)N2c2cc(OC)c(OC)c(OC)c2)cc1O`, the negative-log IC50 (pIC50) is less than 5.00 in the data set with HCT-116; 6.54 against Histone deacetylase 8; 5.62 in data set [2]; 7.80 in the data set on A549; less than 5.00 in the data set with U-87 MG; 6.52 against Histone deacetylase 1. Besides, the pIC50 in the data set on BE(2)-C [1] is 7.37.

In the case of `COc1ccc([C@H]2[C@H](C)C(=O)N2c2cc(OC)c(OC)c(OC)c2)cc1OCCCC(=O)NO`, the pIC50 is less than 5.00 with HCT-116, 5.44 in the data set with A549, 5.36 in the data set with U-87 MG and 5.74 in the data set on BE(2)-C [1].

Take `CC(=O)O[C@H]1C(=O)[C@@]2(C)[C@H]([C@H](OC(=O)c3ccccc3)[C@]3(O)C[C@H](OC(=O)[C@H](O)[C@@H](NC(=O)c4ccccc4)c4ccccc4)C(C)=C1C3(C)C)[C@]1(OC(C)=O)CO[C@@H]1C[C@@H]2O` [PACLITAXEL]: in the data set on BE(2)-C [3], the inhibition in vivo at 5 mg/kg is 44%.

For the compound `C=C1C(=O)N(c2cc(OC)c(OC)c(OC)c2)[C@H]1c1ccc(OC)c(/C=C/CC(=O)NO)c1`, the negative logarithm of the IC50 (pIC50) with HCT-116 was 6.21; in the data set with A549, 5.90; in the data set with U-87 MG, 5.67; with BE(2)-C [1], 7.35.

For the compound `COc1ccc([C@H]2[C@H](COC(=O)c3ccc(C(=O)O)cc3)C(=O)N2c2cc(OC)c(OC)c(OC)c2)cc1O`, the pIC50 in the data set with HCT-116 was 6.40; in the data set on A549, 6.49; in the data set on U-87 MG it was 6.36; with BE(2)-C [1], 6.11.

As usually defined, the solubility is how much of the substance goes into solution per volume. For `O=C(CCCCCCC(=O)Nc1ccccc1)NO` [VORINOSTAT], the Stability is 105.7% in [4] and 92.8% in data set [10]. In addition, the CLint scaled in [5] was less than 8.6 mL/min/kg. The solubility at 10 min in [6] amounted to 91.7 µg/mL (≈ 347 µM). Moreover, the t1/2 in data set [7] was 2.42 h. In data set [8], the remaining at 10 min amounted to 98.4%. Besides, the remaining at 20 min in data set [9] came to 99%. Also, the pIC50 in the data set on BE(2)-C [1] was 5.68. The remaining at 5 min in [11] was 96.4%.

As to `COc1ccc([C@H]2[C@H](CNC(=O)CCCC(=O)NO)C(=O)N2c2cc(OC)c(OC)c(OC)c2)cc1O`, the pIC50 with HCT-116, in the data set with A549, in the data set with U-87 MG and in the data set with BE(2)-C [1] was less than 5.00 throughout.

As for `COc1ccc([C@H]2[C@H](CNC(=O)c3ccc(C(=O)NO)cc3)C(=O)N2c2cc(OC)c(OC)c(OC)c2)cc1O`, the negative logarithm of the IC50 (pIC50) was 6.30 in the data set with HCT-116, 6.32 in the data set on A549, less than 5.00 in the data set on U-87 MG and 6.52 in the data set on BE(2)-C [1].

Turning to `COc1ccc([C@H]2[C@H](C)C(=O)N2c2cc(OC)c(OC)c(OC)c2)cc1OCCCCCC(=O)NO`, the pIC50 in the data set with HCT-116 was 6.33; in the data set with A549, 5.11; with U-87 MG, less than 5.00; in the data set on BE(2)-C [1], 5.11.

Turning to `COc1ccc([C@H]2[C@@H](C)C(=O)N2c2cc(OC)c(OC)c(OC)c2)cc1/C=C/C(=O)NO`, the negative-log IC50 (pIC50) in the data set with HCT-116 is 6.52; with A549 it was 6.76; in the data set on U-87 MG it was 7.64; in the data set on BE(2)-C [1], 6.50.

For `COc1ccc([C@H]2[C@H](C)C(=O)N2c2cc(OC)c(OC)c(OC)c2)cc1OCC(=O)NO`, the pIC50 is 7.09 with HCT-116, 7.27 in the data set with A549, 7.25 with U-87 MG and 7.52 in the data set on BE(2)-C [1].

By IC50 is commonly meant the concentration needed to halve the response being measured. A high value points to lower potency. `C=C1C(=O)N(c2cc(OC)c(OC)c(OC)c2)[C@H]1c1ccc(OC)c(O)c1` yielded an IC50 against Tubulin of 6600 nM. The negative-log IC50 (pIC50) was 6.63 in the data set with HCT-116, 6.89 with A549, 6.84 with U-87 MG and 6.73 in the data set on BE(2)-C [1].

In the case of `C=C1C(=O)N(c2cc(OC)c(OC)c(OC)c2)[C@H]1c1ccc(OC)c(/C=C/C(=O)NO)c1`, the pIC50 was 7.22 in the data set on HCT-116, 7.08 in the data set with A549, 7.14 with U-87 MG and 7.46 in the data set with BE(2)-C [1].

Turning to `COc1ccc([C@H]2[C@H](CNC(=O)CCC(=O)NO)C(=O)N2c2cc(OC)c(OC)c(OC)c2)cc1O`, the negative logarithm of the IC50 (pIC50) with HCT-116, in the data set with A549, in the data set with U-87 MG and in the data set on BE(2)-C [1] was less than 5.00 each time.

Regarding `COc1ccc([C@H]2[C@H](COC(=O)CCCC(=O)NO)C(=O)N2c2cc(OC)c(OC)c(OC)c2)cc1O`, the negative-log IC50 (pIC50) with HCT-116, in the data set with A549, with U-87 MG and in the data set on BE(2)-C [1] was less than 5.00 each time.

Turning to `COc1ccc(/C=C\c2cc(OC)c(OC)c(OC)c2)cc1O` [COMBRETASTATIN A4], the solubility at 10 min in data set [6] was determined as 1.04 µg/mL (≈ 3.29 µM).
